Consider 14 molecules from patent US5639783A, “Ketone derivatives” (Mitsubishi Chemical Corporation, priority 1991, dated 1997).

Like-named read-outs stand apart in the source and are kept apart here.

For one data set, the target named is T1, cathepsin B (Bos taurus, UniProt P07688).
T1 construct: purchased Sigma C-6286
The experiment in a line: Thiol protease inhibitory activity, cathepsin B (C-6286, Sigma). Format: biochemical. The conditions noted are these: Table 3. The method in brief:
(§1)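 Papain and bovine cathepsin B assayed by a published method; cathepsin L purified from rat kidney and assayed in the same manner as cathepsin B. m-Calpain purified from rat brain and assayed by a separate published procedure.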

For a further data set, the target named is T2, papain (Carica papaya, UniProt P00784).
T2 sequence (P00784 134-345): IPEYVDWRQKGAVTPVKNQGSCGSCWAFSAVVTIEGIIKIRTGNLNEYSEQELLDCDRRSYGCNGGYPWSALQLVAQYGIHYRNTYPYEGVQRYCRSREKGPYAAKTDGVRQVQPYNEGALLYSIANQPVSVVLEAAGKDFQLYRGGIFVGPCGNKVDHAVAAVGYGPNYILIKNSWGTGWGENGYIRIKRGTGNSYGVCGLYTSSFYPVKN
The experiment in a line: Thiol protease inhibitory activity, papain (P-3125, Sigma). Format: biochemical. Put shortly:
as §1

The target of data set [1] is T3, m-calpain (Rattus norvegicus, UniProt Q07009).
T3 construct: m-calpain was purified from rat brain; from tissue; host or cells: rat brain
T3 sequence (Q07009 20-700 limits assumed): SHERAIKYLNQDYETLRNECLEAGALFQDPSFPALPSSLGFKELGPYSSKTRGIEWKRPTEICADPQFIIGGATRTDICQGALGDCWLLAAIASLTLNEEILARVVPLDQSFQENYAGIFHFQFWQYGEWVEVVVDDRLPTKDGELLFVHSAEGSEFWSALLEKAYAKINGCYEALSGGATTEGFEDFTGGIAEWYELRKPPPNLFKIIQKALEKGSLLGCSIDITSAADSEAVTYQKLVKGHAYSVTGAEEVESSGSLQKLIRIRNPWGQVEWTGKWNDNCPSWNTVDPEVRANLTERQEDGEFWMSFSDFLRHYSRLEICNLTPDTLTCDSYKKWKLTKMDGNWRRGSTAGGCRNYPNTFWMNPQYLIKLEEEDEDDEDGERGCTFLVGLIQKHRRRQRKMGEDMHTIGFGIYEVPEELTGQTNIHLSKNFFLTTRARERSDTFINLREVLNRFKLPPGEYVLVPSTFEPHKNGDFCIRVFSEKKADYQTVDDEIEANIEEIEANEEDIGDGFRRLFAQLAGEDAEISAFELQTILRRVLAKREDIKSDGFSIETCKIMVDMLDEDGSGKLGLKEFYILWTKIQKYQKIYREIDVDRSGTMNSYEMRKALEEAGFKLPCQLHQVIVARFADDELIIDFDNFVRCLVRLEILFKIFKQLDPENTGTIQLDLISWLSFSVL
T3 sequence (Q64537 1-270 partner): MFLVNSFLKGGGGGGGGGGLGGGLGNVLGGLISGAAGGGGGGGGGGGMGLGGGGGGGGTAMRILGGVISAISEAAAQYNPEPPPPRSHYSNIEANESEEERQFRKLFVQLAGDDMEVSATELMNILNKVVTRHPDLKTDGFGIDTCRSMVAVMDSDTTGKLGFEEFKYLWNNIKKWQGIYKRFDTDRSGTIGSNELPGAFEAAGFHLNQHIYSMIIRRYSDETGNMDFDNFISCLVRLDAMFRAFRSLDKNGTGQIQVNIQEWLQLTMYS
Kind of data set: Thiol protease inhibitory activity, m-calpain purified from rat brain. Format: biochemical. The conditions noted are these: Table 3. Put shortly: as §1

The next data set has as its target T4, cathepsin L (Rattus norvegicus, UniProt P07154).
T4 construct: Cathepsin L was purified from rat kidney; from tissue; host or cells: rat kidney
The experiment in a line: Thiol protease inhibitory activity, cathepsin L purified from rat kidney. Format: biochemical. The conditions noted are these: Table 3. The procedure:
Inhibitory activity against papain (P-3125, Sigma) and cathepsin B (C-6286, Sigma) was assayed according to the method described in a literature [Biochemical Journal, 201, 189 (1982)]. Cathepsin L was purified from rat kidney according to the method in a literature [Journal of Biochemistry, 100, 35 (1986)], and the inhibitory activity against it was assayed in the same manner as described in the above literature for cathepsin B. Furthermore, m-calpain was purified from rat brain according to a known method [Journal of Biological Chemistry, 254, p. 3210 (1984)] and the inhibitory activity against it was assayed by a method described in a literature [Journal of Biological Chemistry, 259, 12489 (1984)]. It is evident from Tables 3 and 4 that the compounds of the present invention have a potent inhibitory activity against thiol proteases such as papain, cathepsin B, cathepsin L or m-calpain.

The target of data set [2] is T3, m-calpain. The experiment in a line: Confirmation of reversible inhibitory activity (remaining m-calpain activity after incubation with inhibitor). It is filed as biochemical. The conditions noted are these: incubated 0 to 20 minutes at 10° C.; 10 μM-150 μM inhibitor solution (1 μl); FIGS. 1 to 3. The procedure: According to the assay for inhibitory activity against calpain in Experiment 1, reversible inhibitory activity of the present compounds was confirmed as follows.
To an imidazole buffer (54 μl ) were added 500 mM CaCl2 solution (1 μl), 5 mM solution of the synthetic substrate described in the literature (4 μl), 10 μM-150 μM inhibitor solution (1 μl) and m-calpain solution (40 μl), and the mixture was incubated for 0 to 20 minutes at a temperature of 10° C. Then, 100 mM EDTA solution (5 μl) was added to inactivate the enzymatic activity. To the mixture was then added imidazole buffer (900 μl) followed by an addition of 5 mM synthetic substrate solution (40 μl) and 500 mM CaCl2 solution (10 μl), and the decomposition rate of the synthetic substrate was measured for 10 minutes at a temperature of 30° C. to determine the remaining activity of the enzyme.
The compounds of Examples 3, 113 and 190 were used as the inhibitor, and E-64 which is an irreversible inhibitor was also used for comparison.

The subject of data set [3] is experimental muscular dystrophy hamster. The conditions noted are these: Journal of Pharmacobio dynamics, 10, 678 (1987); cited from earlier work.
In the next data set the test system is aggregation of platelet. The conditions noted are these: Thrombosis Research, 57, p. 847 (1990); cited from earlier work.
A further data set is described as follows: in vivo. The conditions noted are these: rat, po. The procedure:
The LD50 value of the compound prepared in Example 94 was: >2,000 mg/kg.

In data set [4] the test system is rat which has an enhanced bone destruction by administration of parathyroid hormone. The conditions noted are these: cited from earlier work.
For another data set, the system named is cataract animal models. The conditions noted are these: Investigative Ophthalmology & Visual Science, 32, p. 533 (1991); cited from earlier work.
The subject of the next data set is production of IgE. The conditions noted are these: The Journal of Antibiotics, 42, p. 1362 (1989); cited from earlier work.

The term IC50 denotes the concentration at which inhibition is half-maximal. In general, LD50 refers to the dose expected to kill half of the subjects tested. A high value points to lower toxicity.

T4 sequence (P07154 114-334): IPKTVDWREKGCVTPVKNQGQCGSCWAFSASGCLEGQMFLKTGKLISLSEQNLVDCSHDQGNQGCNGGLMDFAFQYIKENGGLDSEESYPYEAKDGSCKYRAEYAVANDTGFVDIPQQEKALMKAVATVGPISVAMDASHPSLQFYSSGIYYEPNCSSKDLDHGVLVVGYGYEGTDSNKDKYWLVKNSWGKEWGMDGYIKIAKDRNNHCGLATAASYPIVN

Regarding `CCCC[C@H](NC(=O)[C@H](CC(C)C)NC(=O)COc1ccccc1)C(=O)CSCc1ccco1` [3 (No. 82), (s)-1-furfurylthio-3-((s)-4-methyl-2-phenoxyacetylaminovalerylamino)-2-heptanone], the IC50 against cathepsin B was found to be 710 nM; against papain, 260 nM; against m-calpain [1], 3300 nM; at cathepsin L, 16 nM. Further, on m-calpain [2], the “remaining enzymatic activity after incubation with inhibitor (reversible inhibition)” value is “activity nearly equal to that of a control remained”.

As to `CCOC(=O)[C@H]1O[C@@H]1C(=O)N[C@@H](CC(C)C)C(=O)NCCC(C)C` [E-64-d], in data set [3], the “effect in experimental muscular dystrophy hamster” value is given as “life-prolonging effect”. The “aggregation of platelet caused by thrombin” value with aggregation of platelet was “suppressed aggregation of platelet caused by thrombin”.

As for `CSCC(=O)[C@H](Cc1ccccc1)NC(=O)[C@H](CC(C)C)NC(=O)OCc1ccccc1` [Example 113, (s)-3-((s)-2-benzyloxycarbonylamino-4-methylvalerylamino)-1-methylthio-4-phenyl-2-butanone], the “remaining enzymatic activity after incubation with inhibitor (reversible inhibition)” value at m-calpain [2] is “activity nearly equal to that of a control remained”.

On to `CCCC[C@H](NC(=O)[C@H](CC(C)C)NC(=O)OCc1ccccc1F)C(=O)CSCc1ccco1` [23 (No. 49), (s)-3-[(s)-2-(2-fluorobenzyloxycarbonylamino)-4-methylvalerylamino]-1-furfurylthio-2-heptanone], for which the half-maximal inhibitory concentration (IC50) against cathepsin B came to 3700 nM; on papain (Table 3, read-out: IC50 papain), 22000 nM; at m-calpain [1], 6400 nM; against cathepsin L, 1100 nM.

As for `CCCC[C@H](NC(=O)[C@H](CC(C)C)NC(=O)COc1ccc(F)cc1)C(=O)CSCc1ccco1` [38 (No. 87), (s)-3-[(s)-2-(4-fluorophenoxyacetylamino)-4-methylvalerylamino]-1-furfurylthio-2-heptanone], the half-inhibitory concentration (IC50) is 620 nM against cathepsin B; 420 nM at papain (Table 3, read-out: IC50 papain); 5000 nM against m-calpain [1]; 720 nM at cathepsin L.

On to `CCCC[C@H](NC(=O)[C@H](CC(C)C)NC(=O)c1cc(=O)c2ccccc2o1)C(=O)CSCc1ccco1` [94 (No. 188), (s)-1-furfurylthio-3-[(s)-4-methyl-2-(4-oxo-4H-1-benzopyranylcarbonylamino)valerylamino]-2-heptanone], for which the concentration for half-maximal inhibition (IC50) against cathepsin B was 1100 nM; on papain, 770 nM; against m-calpain [1], 9200 nM; against cathepsin L, 24 nM. For the same molecule, the 50% lethal dose (LD50) at 168 h in “in vivo” was > 2000 mg/kg.

On to `CCCC[C@H](NC(=O)[C@H](CC(C)C)NC(=O)COc1ccccc1F)C(=O)CSCc1ccco1` [36 (No. 85), (s)-3-[(s)-2-(2-fluorophenoxyacetylamino)-4-methylvalerylamino]-1-furfurylthio-2-heptanone], for which the half-maximal inhibitory concentration (IC50) at cathepsin B was found to be 4900 nM; on papain (Table 3, read-out: IC50 papain) it was 26000 nM; at m-calpain [1], 25000 nM; against cathepsin L it was 1300 nM.

With `CCCC[C@H](NC(=O)[C@H](CC(C)C)NC(=O)CSc1ccccc1)C(=O)CSCc1ccco1` [49 (No. 107), (s)-1-furfurylthio-3-((s)-4-methyl-2-phenylthioacetylaminovalerylamino)-2-heptanone], the half-maximal inhibitory concentration (IC50) on cathepsin B was 590 nM; against papain it was 40 nM; at m-calpain [1], 11000 nM; against cathepsin L, 670 nM.

For `CCCC[C@H](NC(=O)[C@H](CC(C)C)NC(=O)COc1ccc(Cl)cc1C)C(=O)CSCc1ccco1` [46 (No. 100), (s)-3-[(s)-2-(4-chloro-2-methylphenoxyacetylamino)-4-methylvalerylamino]-1-furfurylthio-2-heptanone], the IC50 was 400 nM on cathepsin B; 390 nM at papain (Table 3, read-out: IC50 papain); 16000 nM against m-calpain [1]; 100 nM against cathepsin L.

Consider `CC(C)C[C@H](NC(=O)[C@H]1O[C@@H]1C(=O)O)C(=O)NCCCCNC(=N)N` [E-64], for which the “calcium concentration and hydroxyproline concentration in blood” value in data set [4] was “decrease of calcium concentration and hydroxyproline concentration in blood”. In addition, the “remaining enzymatic activity after incubation with inhibitor (reversible inhibition)” value on m-calpain [2] is “enzymatic activity rapidly disappeared in proportion to the incubation period”. Further, the effect on cataract result in the data set on cataract animal models is recorded as “effective on cataract in animal models”.

As for `CCCC[C@H](NC(=O)[C@H](CC(C)C)NC(=O)COc1ccc(Cl)cc1Cl)C(=O)CSCc1ccco1` [42 (No. 92), (s)-3-[(s)-2-(2,4-dichlorophenoxyacetylamino)-4-methylvalerylamino]-1-furfurylthio-2-heptanone], the IC50 at cathepsin B is 1900 nM; at papain (Table 3, read-out: IC50 papain), 4500 nM; at m-calpain [1] it was 23000 nM; against cathepsin L, 740 nM.

In the case of `CC(C)C[C@H](NC(=O)OCc1ccccc1)C(=O)N[C@@H](Cc1ccccc1)C(=O)CN(C)C` [190 (No. 465), (s)-3-((s)-2-benzyloxycarbonylamino-4-methylvalerylamino)-1-dimethylamino-4-phenyl-2-butanone], the IC50 against cathepsin B is 1600 nM; on papain (Table 3, read-out: IC50 papain), 40000 nM; against m-calpain [1] it was 7300 nM; against cathepsin L it was 2800 nM. The “remaining enzymatic activity after incubation with inhibitor (reversible inhibition)” value at m-calpain [2] was “activity nearly equal to that of a control remained”.

Regarding `CC(C)C[C@H](NC(=O)COc1ccccc1)C(=O)NC(Cc1cccc2ccccc12)C(=O)CSCc1ccco1` (stereo partly drawn) [209 (No. 555), l-furfurylthio-3-((s)-4-methyl-2-phenoxyacetylaminovalerylamino)-4-(1-naphtyl)-2-butanone], the IC50 against cathepsin B was determined as 6500 nM; at papain (Table 3, read-out: IC50 papain) it was 9000 nM; against m-calpain [1] it was 19000 nM; on cathepsin L, 1500 nM.

With `NC(N)=NCCCCNC(=O)[C@H](Cc1ccccc1)NC(=O)[C@H]1O[C@@H]1C(=O)O` [Estatin A], the “calcium concentration and hydroxyproline concentration in blood” value in data set [4] was “decrease of calcium concentration and hydroxyproline concentration in blood”. Moreover, in the data set on production of IgE, the “production of IgE” value was “specifically inhibit the production of IgE without affecting on the production of IgG”.
